Assay results published in ChEMBL document CHEMBL5257089, “Gamabufotalin Induces Apoptosis and Cytoprotective Autophagy through the mTOR Signaling Pathway in Hepatocellular Carcinoma” (J Nat Prod, 2023).
Activity calls are given as the source filed them. The rule behind the calls is not given here.

Legend:
Hep 3B2 = assay: Antitumor activity against human Hep3B cells xenografted in nude mouse model assessed as decrease in tumor volume at 5 mg/kg,ip administered every second day for 3 weeks by vernier caliper method; assay type: functional, organism-based
Huh-7 = assay: Induction of autophagy in human Huh-7 cells assessed as upregulation of p62 at 25 uM incubated for 48 hrs in presence of 4,6-dimorpholino-N-(4-nitrophenyl)-1,3,5-triazin-2-amine by immunoblot analysis; assay type: functional, cell-based

## C[C@]12CC[C@H](O)C[C@H]1CC[C@@H]1[C@@H]2[C@H](O)C[C@]2(C)[C@@H](c3ccc(=O)oc3)CC[C@]12O [GAMABUFOTALIN]
Hep 3B2
  Activity: Active
Huh-7
  Activity: Active
